pIC50, pKd: −log10 of the molar value. Where two headings read alike, the source gives them in different places. Starred links: 1 amine or outer side, 2 acyl side, 3 side chain; linkers in the order of their positions; H or OH if unused. Positions of bridges follow the written chain, without caps; N, C: chain ends. Non-standard residues stand in square brackets, D forms with d. Residues, ends and D or L forms follow the SMILES beside them. Groups on a side chain read outwards from the residue. *: point of attachment. Trp(1-Me) = Cn1cc(C[C@H](N)C(=O)O)c2ccccc21; C18 diacid = O=C(O)CCCCCCCCCCCCCCCCC(=O)*; γGlu = O=C(O)[C@H](CCC(=O)[*:2])N[*:1]; AEEA = NCCOCCOCC(=O)O; Sar = CNCC(=O)O

Data set [1] concerns classical complement pathway. Kind of data set: In vitro haemolysis assay (inhibition of classical complement pathway). In kind it is cell-based, human. The conditions noted are these: for IC50: Table 3, human serum, sensitized sheep red blood cells, read-out: IC50[nM], in vitro analysis of inhibition of hemolysis; for pIC50: Table 4, valine 3 versus isoleucine 3 pairs, read-out: CP hemolysis IC50. In a few lines:
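Serially diluted compound (9 points) was preincubated 15 min at room temperature with diluted human serum, titrated per batch to give 70-90% maximal haemolysis, in Tris/casein buffer pH 7.4 with Mg2+/Ca2+. Antibody-sensitized sheep erythrocytes were then added for 30 min at 37° C, and the reaction was stopped with EDTA. Haemolysis was read at A405, with IC50 from 4PL fit.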

Data set [2] is described as follows: in vivo. Further details: species or system Cynomolgus monkeys (Macaca fascicularis). The conditions noted are these: male, cynomolgus monkey, sc, 1840 nmol/kg, t½. How it is done:
Healthy male Cynomolgus monkeys (Macaca fascicularis) received single subcutaneous administrations of each test substance. Compounds were formulated in 20 mM phosphate adjusted with NaOH to pH 7.5 and mannitol for isotonicity and dosed at 1840 nmol/kg. Blood was collected from a femoral vein from each animal at the following times: Pre-dose, 1, 2, 4, 8, 24, 48, 72, 96 and 120 h (10 sampling times). Blood was collected into serum separation tubes and allowed to clot at room temperature. The tubes were centrifuged and resulting serum was aliquoted and snap-frozen over dry-ice and stored at nominally −80° C. until analysis. All NHP studies were performed in accordance with animal welfare laws and regulations, including approval of the study by a local ethical review process.
In order to assess pharmacokinetic half-life (t %/), serum samples isolated from non-human primates at specific time points after dosing were analysed for total drug compound after sample preparation by solid phase extraction (SPE) and liquid chromatography mass spectrometry (LC-MS/MS) using analogue internal standard. Single measurement of serum concentrations were used for calculation of the pharmacokinetic parameters using the non-compartmental approach in Phoenix WinNonlin 6.3. Plasma terminal elimination half-life (ty) was determined as In(2)/λz where λz is the magnitude of the slope of the log linear regression of the log concentration versus time profile during the terminal phase.

The target of data set [3] is T1, Human C3 (Homo sapiens, UniProt P01024).
T1 construct: purchased Complement tech A1 13c (so in the source)
Description: Affinity measurement by surface plasmon resonance (SPR) with immobilized C3. In kind it is binding. The settings on record: Table 7; immobilized C3, 25° C., pH 7.4. On the procedure:
Surface plasmon resonance (SPR) was used to characterize peptides with respect to their binding affinity (Kd) for C3. Human C3 (Complement tech cat #A1 13c) was immobilised on individual flow cells of CM5 sensor chips (GE Healthcare) using standard amine coupling to a density of approximately 3000 resonance units (RU) in a buffer consisting of 10 mM phosphate pH 7.4, 150 mM NaCl, 0.05% Tween20. For interaction experiments a multi-cycle experiment approach was used and performed using either a Biacore™ T200 or Biacore™ X100 instrument (GE Healthcare) at 25° C. Peptides were injected in increasing concentration series (5-8 different concentrations) for 60-120 s at a flow rate of 30 μL/min in a buffer consisting of 10 mM Tris buffer at pH 7.4, with 150 mM NaCl and 0.05% Tween20. This was followed by a dissociation period for up to 10 min. […] Sensorgrams were double-referenced (reference surface, blanks) prior to analysis of the kinetic profiles by globally fitting data to a 1:1 Langmuir binding model to obtain association and dissociation rates for calculation of the equilibrium dissociation constant Kd. Each peptide was tested at in at least 2 independent experiments.
In general terms: In SPR one partner is held on a chip, and binding of the other changes the refractive index at the surface.

Data set [4] is described as follows: Solubility test at 10 mg/mL (visual inspection and light scattering). In kind it is physicochemical. The settings on record: for Solubility, Condition 1 Acetate pH 4: 10 mg/mL compound in 100 mM acetate pH 4; for Solubility, Condition 2 Acetate pH 5: 10 mg/mL compound in 100 mM acetate pH 5; for Solubility, Condition 3 Phosphate pH 6: 10 mg/mL compound in 100 mM phosphate pH 6; for Solubility, Condition 4 Phosphate pH 7: 10 mg/mL compound in 100 mM phosphate pH 7; for Solubility, Condition 5 Phosphate pH 7.5: 10 mg/mL compound in 100 mM phosphate pH 7.5.

The term IC50 denotes the midpoint of a concentration-inhibition curve. The half-life is the time needed for the level to fall by half in the phase considered. A higher half-life goes with slow decline. For the compound `CC[C@H](C)[C@@H]1NC(=O)[C@@H](NC(=O)[C@H](Cc2ccc(O)cc2)NC(=O)[C@H](CCC(=O)O)NC(=O)[C@H](CO)NC(C)=O)CSSC[C@@H](C(=O)N(C)CC(=O)N[C@@H](CCC(=O)O)C(=O)NCC(=O)N[C@@H](C)C(=O)N[C@@H](CCCCNC(=O)COCCOCCNC(=O)CC[C@H](NC(=O)COCCOCCNC(=O)CNC(=O)CC[C@H](NC(=O)CCCCCCCCCCCCCCCCC(=O)O)C(=O)O)C(=O)O)C(N)=O)NC(=O)[C@H](CCCNC(=N)N)NC(=O)[C@H](Cc2c[nH]cn2)NC(=O)[C@H](CCC(=O)O)NC(=O)CNC(=O)[C@H](Cc2c[nH]c3ccccc23)NC(=O)[C@H](CCC(=O)O)NC(=O)[C@H](CCC(N)=O)NC(=O)[C@H](Cc2cn(C)c3ccccc23)NC1=O` [Compound 122] (Ac-SEYCI[Trp(1-Me)]QEWGEHRC[Sar]EGAK([AEEA-γGlu-AEEA-Gly-γGlu-C18 diacid])-NH2; disulfide 4-14), the half-inhibitory concentration (IC50) in data set [1] was under 500 nM. In data set [2], this compound showed a half-life of 5.29 days.

Take `CC[C@H](C)[C@@H]1NC(=O)[C@@H](NC(=O)[C@H](Cc2ccccc2)NC(=O)[C@H](CCC(=O)O)NC(=O)[C@H](CO)NC(C)=O)CSSC[C@@H](C(=O)N(C)CC(=O)N[C@@H](CCC(=O)O)C(=O)NCC(=O)N[C@@H](CCC(=O)O)C(=O)N[C@@H](CO)C(=O)N[C@@H](CCC(=O)O)C(=O)N[C@@H](CO)C(=O)N[C@@H](CCCCNC(=O)CC[C@H](NC(=O)CCCCCCCCCCCCCCCCC(=O)O)C(=O)O)C(N)=O)NC(=O)[C@H](CCCNC(=N)N)NC(=O)[C@H](Cc2c[nH]cn2)NC(=O)[C@H](CCC(=O)O)NC(=O)CNC(=O)[C@H](Cc2c[nH]c3ccccc23)NC(=O)[C@H](CC(=O)O)NC(=O)[C@H](CCC(N)=O)NC(=O)[C@H](Cc2cn(C)c3ccccc23)NC1=O` [Compound 141] (Ac-SEFCI[Trp(1-Me)]QDWGEHRC[Sar]EGESESK([γGlu-C18 diacid])-NH2; disulfide 4-14): the IC50 in data set [1] was under 100 nM. Further, in data set [2], the half-life was 6.04 days.

The term pIC50 denotes the IC50 on a negative log10 scale, so that one unit is a factor of ten. The term pKd denotes the negative decadic logarithm of the Kd, by convention in mol/L. A higher pKd goes with a low Kd. As for `CC[C@H](C)[C@H](NC(C)=O)C(=O)N[C@H]1CSSC[C@@H](C(=O)N[C@H](C(=O)N[C@@H](CCC(=O)O)C(=O)NCC(=O)N[C@@H](CCC(=O)O)C(N)=O)[C@@H](C)O)NC(=O)[C@H](CCCNC(=N)N)NC(=O)[C@H](Cc2c[nH]cn2)NC(=O)[C@H](CCC(=O)O)NC(=O)CNC(=O)[C@H](Cc2c[nH]c3ccccc23)NC(=O)[C@H](CC(=O)O)NC(=O)[C@H](CCC(N)=O)NC(=O)[C@H](Cc2c[nH]c3ccccc23)NC(=O)[C@H]([C@@H](C)CC)NC1=O` [Compound 24] (Ac-ICIWQDWGEHRCTEGE-NH2; disulfide 2-12), in data set [1], the 50% inhibitory concentration (IC50) is under 100 nM and the negative logarithm of the IC50 (pIC50) is 7.05. The pKd in data set [3] is 7.55. In data set [4], the “Solubility, Condition 1 Acetate pH 4” value is recorded as “− (denotes lack of solubility at the given condition, as UV absorbance at 340 nm exceeds 0.1 AU and/or it is visibly turbid or contains particles.)”; the “Solubility, Condition 2 Acetate pH 5” value is recorded as “− (denotes lack of solubility at the given condition, as UV absorbance at 340 nm exceeds 0.1 AU and/or it is visibly turbid or contains particles.)”; the “Solubility, Condition 3 Phosphate pH 6” value is recorded as “− (denotes lack of solubility at the given condition, as UV absorbance at 340 nm exceeds 0.1 AU and/or it is visibly turbid or contains particles.)”; the “Solubility, Condition 4 Phosphate pH 7” value is “+ (denotes solubility at the given condition, as determined by UV absorbance being less than 0.1 AU at 340 nm and the sample being clear when manually inspected.)”. Besides, the “Solubility, Condition 5 Phosphate pH 7.5” value in data set [4] was “+ (denotes solubility at the given condition, as determined by UV absorbance being less than 0.1 AU at 340 nm and the sample being clear when manually inspected.)”. Moreover, the “Solubility by visual inspection and absorbance, condition 1, 2 and 3” value in data set [4] (10 mg/mL, acetate pH 4.0, acetate pH 5.0, phosphate pH 6.0, all exceeding 0.1 AU threshold) is “cloudy”. Besides, the “Solubility by visual inspection and absorbance, condition 4 and 5” value in data set [4] (10 mg/mL, phosphate pH 7 and phosphate pH 7.5) was “good conditions for solubility”.

In the case of `CC[C@H](C)[C@H](NC(C)=O)C(=O)N[C@H]1CSSC[C@@H](C(=O)N[C@H](C(=O)NCC(=O)N[C@@H](C)C(=O)N[C@@H](CCC(=O)O)C(=O)N[C@@H](CO)C(N)=O)[C@@H](C)O)NC(=O)[C@H](CCCNC(=N)N)NC(=O)[C@H](Cc2c[nH]cn2)NC(=O)[C@H](CCC(=O)O)NC(=O)CNC(=O)[C@H](Cc2c[nH]c3ccccc23)NC(=O)[C@H](CC(=O)O)NC(=O)[C@H](CCC(N)=O)NC(=O)[C@H](Cc2c[nH]c3ccccc23)NC(=O)[C@H]([C@@H](C)CC)NC1=O` [Compound 15] (Ac-ICIWQDWGEHRCTGAES-NH2; disulfide 2-12), in data set [1], the IC50 was under 100 nM and the pIC50 is 7.33. Further, the pKd in data set [3] was 7.85. For the same compound, in data set [4], the “Solubility, Condition 1 Acetate pH 4” value is “+ (denotes solubility at the given condition, as determined by UV absorbance being less than 0.1 AU at 340 nm and the sample being clear when manually inspected.)”; the “Solubility, Condition 2 Acetate pH 5” value is listed as “− (denotes lack of solubility at the given condition, as UV absorbance at 340 nm exceeds 0.1 AU and/or it is visibly turbid or contains particles.)”; the “Solubility, Condition 3 Phosphate pH 6” value is reported as “− (denotes lack of solubility at the given condition, as UV absorbance at 340 nm exceeds 0.1 AU and/or it is visibly turbid or contains particles.)”; the “Solubility, Condition 4 Phosphate pH 7” value was “+ (denotes solubility at the given condition, as determined by UV absorbance being less than 0.1 AU at 340 nm and the sample being clear when manually inspected.)”. Moreover, the “Solubility, Condition 5 Phosphate pH 7.5” value in data set [4] was “+ (denotes solubility at the given condition, as determined by UV absorbance being less than 0.1 AU at 340 nm and the sample being clear when manually inspected.)”.

`CC[C@H](C)[C@@H]1NC(=O)[C@@H](NC(=O)[C@H](Cc2ccccc2)NC(=O)[C@H](CCC(=O)O)NC(=O)[C@H](CO)NC(C)=O)CSSC[C@@H](C(=O)N(C)CC(=O)N[C@@H](CCC(=O)O)C(=O)NCC(=O)N[C@@H](CCC(=O)O)C(=O)NCCOCCOCC(=O)NCCOCCOCC(=O)N[C@@H](CCCCNC(=O)CC[C@H](NC(=O)CNC(=O)CC[C@H](NC(=O)CCCCCCCCCCCCCCCCC(=O)O)C(=O)O)C(=O)O)C(N)=O)NC(=O)[C@H](CCCNC(=N)N)NC(=O)[C@H](Cc2c[nH]cn2)NC(=O)[C@H](CCC(=O)O)NC(=O)CNC(=O)[C@H](Cc2c[nH]c3ccccc23)NC(=O)[C@H](CCC(=O)O)NC(=O)[C@H](CCC(N)=O)NC(=O)[C@H](Cc2cn(C)c3ccccc23)NC1=O` [Compound 124] (Ac-SEFCI[Trp(1-Me)]QEWGEHRC[Sar]EGE[AEEA][AEEA]K([γGlu-Gly-γGlu-C18 diacid])-NH2; disulfide 4-14): the IC50 in data set [1] is under 100 nM. This compound also showed a half-life in data set [2] of 4.67 days.

Take `CC[C@H](C)[C@@H]1NC(=O)[C@@H](NC(=O)[C@H](Cc2ccccc2)NC(=O)[C@H](CCC(=O)O)NC(=O)[C@H](CO)NC(C)=O)CSSC[C@@H](C(=O)N(C)CC(=O)N[C@@H](CCC(=O)O)C(=O)NCC(=O)N[C@@H](CCC(=O)O)C(=O)NCCOCCOCC(=O)N[C@@H](CCC(=O)O)C(=O)N[C@@H](CO)C(=O)N[C@@H](CCCCNC(=O)CC[C@H](NC(=O)CNC(=O)CC[C@H](NC(=O)CCCCCCCCCCCCCCCCC(=O)O)C(=O)O)C(=O)O)C(N)=O)NC(=O)[C@H](CCCNC(=N)N)NC(=O)[C@H](Cc2c[nH]cn2)NC(=O)[C@H](CCC(=O)O)NC(=O)CNC(=O)[C@H](Cc2c[nH]c3ccccc23)NC(=O)[C@H](CC(=O)O)NC(=O)[C@H](CCC(N)=O)NC(=O)[C@H](Cc2cn(C)c3ccccc23)NC1=O` [Compound 140] (Ac-SEFCI[Trp(1-Me)]QDWGEHRC[Sar]EGE[AEEA]ESK([γGlu-Gly-γGlu-C18 diacid])-NH2; disulfide 4-14): the 50% inhibitory concentration (IC50) in data set [1] was under 100 nM. Besides, the half-life in data set [2] was 4.17 days.

These data come from patent publication US20220306695A1, “COMPSTATIN ANALOGUES AND THEIR MEDICAL USES” (priority 2019, published 2022).
